The values that follow come from patent publication US20250313553A1, “ANNULATED 2-AMINO-3-CYANO THIOPHENES AND DERIVATIVES FOR THE TREATMENT OF CANCER” (Boehringer Ingelheim Int'l GmbH Corp., priority 2021, published 2025).

Broadly, the IC50 is the point on the concentration scale where inhibition reaches its midpoint. One may read the solubility as the dissolved amount per volume that the medium holds.

Molecules are shown by their SMILES. Converted amounts (≈) assume the structure as drawn. Like-named read-outs stand apart in the source and are kept apart here. Where only a bound is given, the exact number is not on record here.

The target in one data set is KRAS G12C Ba/F3 cells (Homo sapiens, UniProt P01116, G12C, cells depend on it). The data set is described as follows: Ba/F3 proliferation assay, KRAS G12C. The class given is cell-based. To be noted: 72 h, AlamarBlue, read-out: KRAS G12C Ba/F3 IC50. The protocol: (§1) To generate KRASG12-dependent Ba/F3 models, Ba/F3 cells are transduced with retroviruses containing vectors that harbor KRASG12 isoforms. Platinum-E cells (Cell Biolabs) are used for retrovirus packaging. Retrovirus is added to Ba/F3 cells. To ensure infection, 4 μg/mL polybrene is added and cells are spinfected. […] Cells with an infection efficiency of 10% to 20% are further cultivated and puromycin selection with 1 μg/mL is initiated. As a control, parental Ba/F3 cells are used to show selection status. Selection is considered successful when parental Ba/F3 cells cultures died. To evaluate the transforming potential of KRASG12 mutations, the growth medium is no longer supplemented with IL-3. Ba/F3 cells harboring the empty vector are used as a control. Approximately ten days before conducting the experiments, puromycin is left out.
(§2) All treatments are performed in technical duplicates. […] AlamarBlue™ (ThermoFisher), a viability stain, is added and fluorescence measured in the PerkinElmer Envision HTS Multilabel Reader. The raw data are imported into and analyzed with the Boehringer Ingelheim proprietary software MegaLab (curve fitting based on the program PRISM, GraphPad Inc.).
On the technique in general: Resazurin is reduced to fluorescent resorufin, in cell work by metabolically active cells.

Another data set has as its target KRAS G12V Ba/F3 cells (Homo sapiens, UniProt P01116, G12V, cells depend on it). The data set is described as follows: Ba/F3 proliferation assay, KRAS G12V. The conditions noted are these: 72 h, AlamarBlue, read-out: KRAS G12V Ba/F3 IC50. The class given is cell-based. As to the method: as §1, §2
A further data set deals with KRAS G12D Ba/F3 cells (Homo sapiens, UniProt P01116, G12D, cells depend on it). The data set is described as follows: Ba/F3 proliferation assay, KRAS G12D. The class given is cell-based. To be noted: 72 h, AlamarBlue, read-out: KRAS G12D Ba/F3 IC50. As to the method: as §1, §2
For data set [1], the system named is ERK phosphorylation in NCI-H358 (KRAS G12C). The data set is described as follows: ERK phosphorylation assay (assay 1, NCI-H358). The conditions noted are these: Homo sapiens; NCI-H358, assay 1, 1 h incubation; read-out: IC50 H358 pERK. The class given is cell-based. The protocol: Low IC50 values in this assay setting are indicative of high potency of the compounds according to the invention. […]
The cells are incubated for 1 h at room temperature and then incubated overnight in an incubator at 37° C. and 5% CO2 in a humidified atmosphere. 60 nL compound solution (10 mM DMSO stock solution) is then added using a Labcyte Echo 550 device. […] After 20 min of incubation at room temperature with shaking, 6 μL of each lysate sample is transferred to a 384-well Proxiplate and analyzed for pERK (Thr202/Tyr204) with the AlphaLISA SureFire Ultra pERK1/2 (Thr202/Tyr204) Assay Kit. 3 μL Acceptor Mix and 3 μL Donor Mix are added under subdued light and incubated for 2 h at room temperature in the dark, before the signal is measured on a PerkinElmer Envision HTS Multilabel Reader. The raw data are imported into and analyzed with the Boehringer Ingelheim proprietary software MegaLab (curve fitting based on the program PRISM, GraphPad Inc.).

The target in another data set is T1, KRAS (G12D) and SOS1 (Homo sapiens, UniProt P01116, G12D).
T1 construct: KRAS (G12D) 1-169, N-terminal 6His-tag; 6His (N); purchased Xtal BioStructures, Inc. (KRAS G12D); Viva Biotech Ltd (SOS1)
The data set is described as follows: KRAS::SOS1 AlphaScreen binding assay, KRAS G12D. The protocol:
(§3) Low IC50 values in this assay setting are indicative of strong inhibition of protein-protein interaction between SOS1 and KRAS:
(§4) These assays measure the inhibitory effect of compounds on KRAS mutant protein-protein interactions using the Alpha Screen technology by Perkin Elmer.
(§5) For the chosen highest assay concentration of 100 μM, 150 nL of compound solution are transferred from a 10 mM DMSO compound stock solution. A series of eleven fivefold dilutions per compound are transferred to the assay plate, compound dilutions are tested in duplicates. DMSO are added as backfill to a total volume of 150 nL.
(§6) The assays run on a fully automated robotic system in a darkened room below 100 Lux. To 150 nl of compound dilution 10 μl of a mix including KRAS mutant protein, SOS1 (final assay concentrations see above) and GDP nucleotide (Sigma G7127; final assay concentration 10 μM) in assay buffer (1×PBS, 0.1% BSA, 0.05% Tween 20) are added into columns 1-24. After 30 minutes incubation time 5 μl of Alpha Screen bead mix in assay buffer are added into columns 1-23.
(§7) Plates are kept at room temperature in a darkened incubator. After an additional 60 minutes incubation time the signal is measured in a PerkinElmer Envision HTS Multilabel Reader using the AlphaScreen specs from PerkinElmer.
(§8) IC50 values are calculated and analyzed with Boehringer Ingelheim's MEGALAB IC50 application using a 4 parametric logistic model.

A short description of data set [2]: Metabolic (microsomal) stability assay, HLM. The class given is in vitro ADME. The conditions noted are these: human liver microsomes, 1 μM, predicted clearance as percent of liver blood flow. The protocol: The metabolic degradation of the test compound is assayed at 37° C. with pooled liver microsomes (mouse (MLM), rat (RLM) or human (HLM)). The final incubation volume of 48 μL per time point contains TRIS buffer (pH 7.5; 0.1 M), magnesium chloride (6.5 mM), microsomal protein (0.5 mg/mL for mouse/rat, 1 mg/mL for human specimens) and the test compound at a final concentration of 1 μM. Following a short preincubation period at 37° C., the reactions are initiated by addition of 12 μL beta-nicotinamide adenine dinucleotide phosphate, reduced form (NADPH, 10 mM) and terminated by transferring an aliquot into solvent after different time points (0, 5, 15, 30, 60 min). Additionally, the NADPH-independent degradation is monitored in incubations without NADPH, terminated at the last time point by addition of acetonitrile. The quenched incubations are pelleted by centrifugation (4,000 rpm, 15 min). An aliquot of the supernatant is assayed by LC-MS/MS to quantify the concentration of parent compound in the individual samples.
In vitro intrinsic clearance (CLint, in vitro) is calculated from the time course of the disappearance of the test drug during the microsomal incubation. Each plot is fitted to the first-order elimination rate constant as C(t)=C0*exp(−ke*t), where C(t) and C0 are the concentration of unchanged test drug at incubation time t and that at preincubation and ke is the disappearance rate constant of the unchanged drug. Subsequently, CLint, in vitro (μL min^−1·amount protein) values are converted to predicted CLint, in vivo (mL min^−1·kg^−1) from incubation parameters according to the equation CLint, in vivo=CLint, in vitro×(incubation volume (ml)/amount protein (mg))×(amount protein (mg)/g liver tissue)×(liver weight/body wt.). For better across species comparison the predicted clearance is expressed as percent of the liver blood flow [% QH](mL min^−1·kg^−1) in the individual species. In general, high stability (corresponding to low % QH) of the compounds across species is desired.

For the next data set, the target named is T2, KRAS (G12V) and SOS1 (Homo sapiens, UniProt P01116, C118S/G12V).
T2 construct: KRAS (G12V) 1-169, N-terminal 6His-tag for purification; 6His (N, cleaved yes); TEV cleavage site
The data set is described as follows: KRAS::SOS1 AlphaScreen binding assay, KRAS G12V. The protocol:
as §3, §4, §5, §6, §7, §8
In general terms: Bead proximity is the source of the signal in Alpha formats.

Data set [3] in a line: Solubility measurement (DMSO solution precipitation method). It is filed as physicochemical. To be noted: aqueous buffer, kinetic from dmso stock. As to the method: The DMSO solution is diluted with an aqueous medium (McIlvaine buffer with pH=4.5 or 6.8) to a final concentration of 250 μM. After 24 h of shaking at ambient temperature a potentially formed precipitate is removed by filtration. The concentration of the test compound in the filtrate is determined by LC-UV methods by calibrating the signal to the signal of a reference solution with complete dissolution of the test compound in acetonitrile/water (1:1) with known concentration.

The target in another data set is T3, KRAS (G12C) and SOS1 (Homo sapiens, UniProt P01116, C118S/C51S/C80L/G12C).
T3 construct: KRAS (G12C) 1-169, N-terminal 6His-tag for purification; 6His (N, cleaved yes)
The data set is described as follows: KRAS::SOS1 AlphaScreen binding assay, KRAS G12C. The protocol: as §3, §4, §5, §6, §7, §8

Setting [4] is: McIlvaine buffer pH 4.5, 24 h, read-out: solubility pH 4.5.
Setting [5] is: McIlvaine buffer pH 6.8, 24 h, read-out: solubility pH 6.8.

Sequence of KRAS G12C Ba/F3 cells (P01116 whole entry G12C, canonical isoform): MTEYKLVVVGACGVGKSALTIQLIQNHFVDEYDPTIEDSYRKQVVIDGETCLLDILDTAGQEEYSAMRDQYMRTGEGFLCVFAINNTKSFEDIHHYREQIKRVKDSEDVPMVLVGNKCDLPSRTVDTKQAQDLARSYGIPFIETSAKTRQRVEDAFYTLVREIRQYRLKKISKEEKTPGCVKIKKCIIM
T3 sequence (P01116 1-169 isoform P01116-2 G12C/C51S/C80L/C118S): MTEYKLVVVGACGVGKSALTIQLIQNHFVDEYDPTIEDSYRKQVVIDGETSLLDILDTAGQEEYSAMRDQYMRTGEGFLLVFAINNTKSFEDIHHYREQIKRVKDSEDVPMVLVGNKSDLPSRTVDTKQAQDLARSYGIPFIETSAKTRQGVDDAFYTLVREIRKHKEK
Sequence of KRAS G12D Ba/F3 cells (P01116 whole entry G12D): as the sequence (P01116 whole entry G12C, canonical isoform) above, with C12D counted along it
T1 sequence (P01116 1-169 isoform P01116-2 G12D): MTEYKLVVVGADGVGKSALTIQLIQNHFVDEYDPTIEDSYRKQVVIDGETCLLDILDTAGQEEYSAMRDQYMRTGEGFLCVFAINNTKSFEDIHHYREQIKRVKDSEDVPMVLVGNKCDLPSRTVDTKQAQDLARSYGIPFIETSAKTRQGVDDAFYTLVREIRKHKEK
Sequence of KRAS G12V Ba/F3 cells (P01116 whole entry G12V): as the sequence (P01116 whole entry G12C, canonical isoform) above, with C12V counted along it
T2 sequence (P01116 1-169 isoform P01116-2 G12V/C118S): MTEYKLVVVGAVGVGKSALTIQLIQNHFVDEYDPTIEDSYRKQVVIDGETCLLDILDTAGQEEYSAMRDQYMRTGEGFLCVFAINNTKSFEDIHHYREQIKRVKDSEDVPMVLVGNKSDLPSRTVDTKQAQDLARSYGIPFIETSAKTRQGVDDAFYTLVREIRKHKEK

As for `C[C@H]1CN(CC2CC2)CCCN1c1nccc(-c2noc([C@@]3(C)CCCc4sc(N)c(C#N)c43)n2)n1` [Example V-3], the GI50 on KRAS G12C Ba/F3 cells is 409 nM; on KRAS G12V Ba/F3 cells it was 516 nM; on KRAS G12D Ba/F3 cells, 214 nM. The IC50 worked out at 24 nM in data set [1]; 3 nM on KRAS (G12D) and SOS1; 5 nM on KRAS (G12V) and SOS1; 6 nM at KRAS (G12C) and SOS1. In data set [2], the “HLM QH” value is given as above 95%. Also, the solubility at 24 h was above 100 µg/mL in [3] (setting [4]) and 82 µg/mL (≈ 162 µM) in [3] (setting [5]).
Regarding `C[C@H](Oc1ccnc(-c2cc([C@@]3(C)CCCc4sc(N)c(C#N)c43)on2)n1)[C@@H]1CCCN1C` [Example V-24], the GI50 was determined as 105 nM at KRAS G12C Ba/F3 cells and 108 nM on KRAS G12D Ba/F3 cells. In addition, the IC50 in data set [1] came out at 19 nM; at KRAS (G12D) and SOS1 it was 2 nM; at KRAS (G12C) and SOS1, 4 nM. Besides, the solubility at 24 h in data set [3] (setting [4]) and in [3] (setting [5]) was above 110 µg/mL each time.
On to `C[C@H](Oc1ccnc(-c2cc([C@@]3(C)CCCc4sc(N)c(C#N)c43)no2)n1)[C@@H]1CCCN1C` [Example V-25], for which the GI50 turned out to be 940 nM at KRAS G12C Ba/F3 cells, 6060 nM on KRAS G12V Ba/F3 cells and 961 nM on KRAS G12D Ba/F3 cells. In addition, the IC50 in data set [1] worked out at 100 nM; on KRAS (G12D) and SOS1, 9 nM; at KRAS (G12V) and SOS1, 11 nM; at KRAS (G12C) and SOS1 it was 14 nM. Moreover, the figures for the solubility at 24 h in data set [3] (setting [4]) and in data set [3] (setting [5]) were above 110 µg/mL and above 100 µg/mL, respectively.
In the case of `CC(C)N1CCCN(c2nccc(-c3cc([C@@]4(C)CCCc5sc(N)c(C#N)c54)on3)n2)[C@@H](C)C1` [Example V-26], the GI50 on KRAS G12C Ba/F3 cells was determined as 95 nM; on KRAS G12D Ba/F3 cells it was 79 nM. In addition, the IC50 at KRAS (G12D) and SOS1 came to 2 nM; on KRAS (G12C) and SOS1, 7 nM. Further, the figures for the solubility at 24 h in data set [3] (setting [4]) and in data set [3] (setting [5]) were above 100 µg/mL and 95 µg/mL (≈ 193 µM), respectively.
